Results published in patent US10316037B1, “Compounds and methods for treating cancer” (YALE UNIVERSITY, priority 2016, dated 2019).

Tested on: cancer cell lines
Assay: Anti-cancer activity, CellTiter-Glo luminescence after 72 hours compound treatment
Format: cell-based
Details: cell line not stated, 4-parameter fit inflection point (IC50)
Protocol: Compounds to be tested for anti-cancer activity were submitted dry, dissolved to 10 mM stocks in DMSO, and stored protected from light at −80° C. until use. DMSO vehicle control wells, and 3 fold serial dilutions of compounds from 10 mM to 6.2 nM were prepared in 384 well plates. Kinamycin and tamoxifen were also added as controls in this manner.
LN2 aliquots of cancer cells (indicated in the tables of FIGS. 3 and 4) were cultured at YCMD and plated in Corning 3707 TC plates at 400 cells/well initial seeding density in 20 uL of growth medium. Cells were incubated overnight at 37′C in a humidified 5% CO2 incubator, and treated with compounds.
20 nL of compound was dispensed into the assay plates using a 384-well pin tool on the Tecan Aquarius. Final assay compound treatments ranged from 10 uM to 6.2 pM, 0.1% DMSO. […]
For assay readout CellTiter-Glo (Promega) was prepared according to manufacturer's instructions and 20 uL/well was added to assay plates using a MultiDrop. Luminescence was read on an Envision plate reader (Perkin Elmer) with 0.3 second sampling time per well after a 10 min. room temperature incubation in the dark.
Toxic effects have low luminescence signal relative to the vehicle control […]. Raw data (luminescence counts per second) were normalized to percent effect by the formula: […]. […]

Compound	IC50 [nM]
C[C@H](N)CCc1c2c(cc(=O)n1Cc1nc(-c3nc(C(=O)NCCN(C)C)cs3)cs1)C1(CC1)NC2=O [compound 17a]	35
CSCCCNC(=O)c1csc(-c2csc(Cn3c(CC[C@H](C)NC(=O)OC(C)(C)C)c4c(cc3=O)C3(CC3)NC4=O)n2)n1 [compound S4]	11
